Measurements published in US20100305098A1, “METHODS OF USE” (priority 2007, published 2010).

What was measured:
PK1 = biological target: T1, PK1 (Homo sapiens, UniProt Q8TCW9); experiment: FLIPR functional screen; type: cell-based; conditions: PK-1, antagonist mode
T1 construct: Millipore

PAR2 = biological target: T2, PAR2 (Homo sapiens, UniProt P55085); experiment: FLIPR functional screen; type: cell-based; conditions: antagonist mode
T2 construct: Millipore

S1P5 = biological target: T3, S1P5 (Homo sapiens, UniProt Q9H228); experiment: FLIPR functional screen; type: cell-based; conditions: antagonist mode
T3 construct: Millipore
T3 sequence (Q9H228 whole entry, species assumed): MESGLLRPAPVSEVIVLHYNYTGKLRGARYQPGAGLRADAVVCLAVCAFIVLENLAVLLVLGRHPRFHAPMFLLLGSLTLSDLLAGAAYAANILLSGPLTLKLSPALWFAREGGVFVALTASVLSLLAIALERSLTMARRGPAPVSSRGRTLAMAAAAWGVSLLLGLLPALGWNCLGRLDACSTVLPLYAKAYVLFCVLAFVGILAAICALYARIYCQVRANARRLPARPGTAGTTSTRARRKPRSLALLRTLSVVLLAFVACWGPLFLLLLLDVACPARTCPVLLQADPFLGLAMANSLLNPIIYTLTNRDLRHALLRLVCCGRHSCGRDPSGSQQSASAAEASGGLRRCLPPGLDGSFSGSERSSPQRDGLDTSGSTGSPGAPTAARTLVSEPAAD

GAL2 = biological target: T4, GAL2 (Homo sapiens, UniProt O43603); experiment: FLIPR functional screen; type: cell-based; conditions: antagonist mode
T4 construct: Millipore

BB1 = biological target: T5, BB1 (Homo sapiens, UniProt P28336); experiment: FLIPR functional screen; type: cell-based; conditions: antagonist mode
T5 construct: Millipore
T5 sequence (P28336 whole entry): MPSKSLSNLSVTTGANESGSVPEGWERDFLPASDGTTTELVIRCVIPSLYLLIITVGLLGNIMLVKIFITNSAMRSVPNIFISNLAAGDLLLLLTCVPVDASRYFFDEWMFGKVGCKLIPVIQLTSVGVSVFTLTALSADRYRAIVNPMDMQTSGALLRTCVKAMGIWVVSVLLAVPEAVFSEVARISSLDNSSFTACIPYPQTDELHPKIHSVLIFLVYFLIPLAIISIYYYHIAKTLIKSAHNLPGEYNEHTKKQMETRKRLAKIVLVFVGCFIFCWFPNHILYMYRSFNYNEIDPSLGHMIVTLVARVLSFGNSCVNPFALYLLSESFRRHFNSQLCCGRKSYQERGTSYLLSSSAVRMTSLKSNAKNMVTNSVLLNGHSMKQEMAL

M5 = biological target: T6, M5 (Homo sapiens, UniProt P08912); experiment: FLIPR functional screen; type: cell-based; conditions: antagonist mode
T6 construct: Millipore

PAC1 = biological target: T7, PAC1 (Homo sapiens, UniProt P41586); experiment: FLIPR functional screen; type: cell-based; conditions: antagonist mode
T7 construct: Millipore

C5AR = biological target: T8, C5AR (Homo sapiens, UniProt P21730); experiment: FLIPR functional screen; type: cell-based; conditions: antagonist mode
T8 construct: Millipore

S1P4 = biological target: T9, S1P4 (Homo sapiens, UniProt O95977); experiment: FLIPR functional screen; type: cell-based; conditions: antagonist mode
T9 construct: Millipore

FPR1 = biological target: T10, FPR1 (Homo sapiens, UniProt P21462); experiment: FLIPR functional screen; type: cell-based; conditions: antagonist mode
T10 construct: Millipore
T10 sequence (P21462 whole entry, species assumed): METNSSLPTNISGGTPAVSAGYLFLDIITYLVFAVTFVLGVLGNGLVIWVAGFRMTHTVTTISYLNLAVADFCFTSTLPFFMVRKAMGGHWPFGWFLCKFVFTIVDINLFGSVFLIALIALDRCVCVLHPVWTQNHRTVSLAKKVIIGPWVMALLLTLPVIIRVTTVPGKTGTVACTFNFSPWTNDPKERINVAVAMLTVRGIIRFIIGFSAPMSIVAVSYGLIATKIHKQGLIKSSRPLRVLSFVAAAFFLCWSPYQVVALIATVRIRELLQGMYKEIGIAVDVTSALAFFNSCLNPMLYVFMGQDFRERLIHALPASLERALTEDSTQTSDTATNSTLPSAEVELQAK

GNRHR = biological target: T11, GNRHR (Homo sapiens, UniProt P30968); experiment: FLIPR functional screen; type: cell-based; conditions: antagonist mode
T11 construct: Millipore

D5 = biological target: T12, D5 (Homo sapiens, UniProt P21918); experiment: FLIPR functional screen; type: cell-based; conditions: antagonist mode
T12 construct: Millipore

5-HT1A = biological target: T13, 5-HT1A (Homo sapiens, UniProt P08908); experiment: FLIPR functional screen; type: cell-based; conditions: antagonist mode
T13 construct: purchased Millipore (outsourced screen)

[1] = biological target: T14, Leukotriene, Cysteinyl CysLT1 (Homo sapiens, UniProt Q9Y271); experiment: Competitive radioligand binding (MDS Pharma)
T14 construct: purchased MDS Pharma (outsourced assay)
T14 sequence (Q9Y271 whole entry): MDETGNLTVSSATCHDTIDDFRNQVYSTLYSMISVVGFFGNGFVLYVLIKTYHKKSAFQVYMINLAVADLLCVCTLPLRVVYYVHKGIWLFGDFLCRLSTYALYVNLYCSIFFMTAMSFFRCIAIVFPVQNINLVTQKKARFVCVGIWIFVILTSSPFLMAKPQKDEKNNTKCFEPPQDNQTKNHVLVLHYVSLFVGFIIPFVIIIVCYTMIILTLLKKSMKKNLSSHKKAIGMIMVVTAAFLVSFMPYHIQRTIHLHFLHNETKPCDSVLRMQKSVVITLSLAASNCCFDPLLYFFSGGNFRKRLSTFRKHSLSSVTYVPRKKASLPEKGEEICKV

PTH1 = biological target: T15, PTH1 (Homo sapiens, UniProt Q03431); experiment: FLIPR functional screen; type: cell-based; conditions: antagonist mode
T15 construct: Millipore
T15 sequence (Q03431 27-593): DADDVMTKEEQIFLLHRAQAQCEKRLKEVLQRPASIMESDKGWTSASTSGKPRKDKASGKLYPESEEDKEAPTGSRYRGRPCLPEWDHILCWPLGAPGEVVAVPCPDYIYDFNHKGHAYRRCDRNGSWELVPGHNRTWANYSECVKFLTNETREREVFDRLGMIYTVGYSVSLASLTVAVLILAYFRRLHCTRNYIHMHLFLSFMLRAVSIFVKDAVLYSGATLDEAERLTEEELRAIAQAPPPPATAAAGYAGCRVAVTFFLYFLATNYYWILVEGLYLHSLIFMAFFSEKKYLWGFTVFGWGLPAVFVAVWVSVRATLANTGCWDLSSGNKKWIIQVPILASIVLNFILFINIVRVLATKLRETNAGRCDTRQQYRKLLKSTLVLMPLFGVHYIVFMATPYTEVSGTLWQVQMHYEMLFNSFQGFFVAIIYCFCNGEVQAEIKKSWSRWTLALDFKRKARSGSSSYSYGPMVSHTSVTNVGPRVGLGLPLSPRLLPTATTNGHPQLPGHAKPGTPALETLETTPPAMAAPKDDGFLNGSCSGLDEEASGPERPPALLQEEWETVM

M4 = biological target: T16, M4 (Homo sapiens, UniProt P08173); experiment: FLIPR functional screen; type: cell-based; conditions: antagonist mode
T16 construct: Millipore
T16 sequence (P08173 whole entry): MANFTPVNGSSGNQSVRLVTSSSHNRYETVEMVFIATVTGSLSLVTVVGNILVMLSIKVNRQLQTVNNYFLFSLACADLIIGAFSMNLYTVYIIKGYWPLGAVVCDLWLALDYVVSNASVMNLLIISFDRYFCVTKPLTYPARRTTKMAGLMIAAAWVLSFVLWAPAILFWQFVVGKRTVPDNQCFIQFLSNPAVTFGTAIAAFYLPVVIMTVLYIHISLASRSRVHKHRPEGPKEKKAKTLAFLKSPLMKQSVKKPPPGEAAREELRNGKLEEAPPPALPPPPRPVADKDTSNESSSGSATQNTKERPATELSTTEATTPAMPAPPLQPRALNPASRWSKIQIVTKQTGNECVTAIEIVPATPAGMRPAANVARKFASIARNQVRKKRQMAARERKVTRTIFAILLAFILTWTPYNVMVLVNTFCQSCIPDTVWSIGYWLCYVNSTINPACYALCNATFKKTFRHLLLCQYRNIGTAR

A1 = biological target: T17, A1 (Homo sapiens, UniProt P30542); experiment: FLIPR functional screen; type: cell-based; conditions: antagonist mode
T17 construct: purchased Millipore (outsourced screen)

PK2 = biological target: T18, PK2 (Homo sapiens, UniProt Q8NFJ6); experiment: FLIPR functional screen; type: cell-based; conditions: antagonist mode
T18 construct: Millipore

CIA mouse = experiment: Suppression of arthritis development in CIA; type: in vivo
Excerpt: Suppression of arthritis development in CIA. DBA1/J mice were immunized with bCII/CFA at day 0 then boosted at day 21 with bCII/IFA. Arthritis development was monitored over the course of study. The arthritis score is as follows: 0=normal paw, score of 1=1-2 digit inflamed paws; score of 2=3 digits or 1-2 digit+wrist or ankle inflamed, score of 3=hand+more than 2 digits inflamed; and score of 4=multiple digits (3-4)+important wrist or ankle inflammation.
(A) Partial therapeutic evaluation of compounds. Active compound was given by oral dosing once daily at the dose indicated from day 20 after induction of antibodies to collagen II but before disease development. (B) Full therapeutic evaluation of compound. Active compound was given after disease was developed (from day 7 after the second immunization). (C) X-ray analysis of mouse paws from full therapeutic CIA study. X-ray score is the index of measurement of combination of osteopenia, bone erosion and new bone formation. (D) Representative X-ray radiographs.
Collagen induced arthritis model. Male DBA/1 mice were immunized intradermally at the base of the tail with 0.1 ml emulsion, containing 150 μg bovine type II collagen emulsified in Freund's complete adjuvant. Three weeks after 1st immunization, all mice were boosted with bovine type II collagen emulsified in Freund's incomplete adjuvant. The severity of arthritic symptoms in the paws of each mouse was graded according to Wood et al. in accordance with known techniques.
Several studies were performed in the mouse CIA model to evaluate anti-arthritic effects of ER-819924-01. Initially ER-819924-01 was studied in a partial therapeutic dosing regimen in which compounds were orally administered daily from day 20 (i.e. after induction of pathogenic anti-type II collagen antibodies, but before arthritis development). Arthritis score (measured as an inflammatory response index of inflamed paw) and body weight were monitored over two weeks. […] We also studied ER-819924-01 in a full therapeutic dosing regimen in which compounds were dosed after the induction of disease.

CCR8 = biological target: T19, CCR8 (Homo sapiens, UniProt P51685); experiment: FLIPR functional screen; type: cell-based; conditions: antagonist mode
T19 construct: Millipore

C3AR = biological target: T20, C3AR (Homo sapiens, UniProt Q16581); experiment: FLIPR functional screen; type: cell-based; conditions: antagonist mode
T20 construct: Millipore

NK1 = biological target: T21, NK1 (Homo sapiens, UniProt P25103); experiment: FLIPR functional screen; type: cell-based; conditions: antagonist mode
T21 construct: Millipore
T21 sequence (P25103 whole entry): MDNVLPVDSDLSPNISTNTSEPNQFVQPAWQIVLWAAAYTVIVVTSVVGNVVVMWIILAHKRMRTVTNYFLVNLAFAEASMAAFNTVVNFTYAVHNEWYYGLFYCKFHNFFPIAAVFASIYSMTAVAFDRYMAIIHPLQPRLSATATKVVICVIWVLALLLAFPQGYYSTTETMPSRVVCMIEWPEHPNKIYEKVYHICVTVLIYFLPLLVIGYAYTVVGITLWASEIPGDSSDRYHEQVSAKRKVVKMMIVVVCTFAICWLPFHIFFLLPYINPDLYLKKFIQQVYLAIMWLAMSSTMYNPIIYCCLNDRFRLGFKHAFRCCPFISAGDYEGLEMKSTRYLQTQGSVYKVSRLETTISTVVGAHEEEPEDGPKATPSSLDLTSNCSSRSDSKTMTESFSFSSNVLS

OPRK1 = biological target: T22, OPRK1 (Homo sapiens, UniProt P41145); experiment: FLIPR functional screen; type: cell-based; conditions: antagonist mode
T22 construct: Millipore

VPAC1 = biological target: T23, VPAC1 (Homo sapiens, UniProt P32241); experiment: FLIPR functional screen; type: cell-based; conditions: antagonist mode
T23 construct: Millipore

MOTILIN = biological target: T24, MOTILIN (Homo sapiens, UniProt O43193); experiment: FLIPR functional screen; type: cell-based; conditions: antagonist mode
T24 construct: Millipore
T24 sequence (O43193 whole entry): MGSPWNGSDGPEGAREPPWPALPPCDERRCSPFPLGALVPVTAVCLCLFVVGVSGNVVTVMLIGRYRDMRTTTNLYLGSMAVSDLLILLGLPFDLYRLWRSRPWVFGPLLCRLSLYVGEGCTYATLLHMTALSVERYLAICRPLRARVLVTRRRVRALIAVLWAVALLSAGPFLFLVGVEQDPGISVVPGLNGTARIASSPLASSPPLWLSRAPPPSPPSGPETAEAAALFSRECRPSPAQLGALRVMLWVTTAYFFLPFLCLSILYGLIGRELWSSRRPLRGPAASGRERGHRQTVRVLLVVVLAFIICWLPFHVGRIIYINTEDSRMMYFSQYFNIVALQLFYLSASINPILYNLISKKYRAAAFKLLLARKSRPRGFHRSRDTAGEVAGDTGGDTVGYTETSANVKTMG

PTH2 = biological target: T25, PTH2 (Homo sapiens, UniProt P49190); experiment: FLIPR functional screen; type: cell-based; conditions: antagonist mode
T25 construct: Millipore

ETB = biological target: T26, ETB (Homo sapiens, UniProt P24530); experiment: FLIPR functional screen; type: cell-based; conditions: antagonist mode
T26 construct: Millipore
T26 sequence (P24530 27-442, species assumed): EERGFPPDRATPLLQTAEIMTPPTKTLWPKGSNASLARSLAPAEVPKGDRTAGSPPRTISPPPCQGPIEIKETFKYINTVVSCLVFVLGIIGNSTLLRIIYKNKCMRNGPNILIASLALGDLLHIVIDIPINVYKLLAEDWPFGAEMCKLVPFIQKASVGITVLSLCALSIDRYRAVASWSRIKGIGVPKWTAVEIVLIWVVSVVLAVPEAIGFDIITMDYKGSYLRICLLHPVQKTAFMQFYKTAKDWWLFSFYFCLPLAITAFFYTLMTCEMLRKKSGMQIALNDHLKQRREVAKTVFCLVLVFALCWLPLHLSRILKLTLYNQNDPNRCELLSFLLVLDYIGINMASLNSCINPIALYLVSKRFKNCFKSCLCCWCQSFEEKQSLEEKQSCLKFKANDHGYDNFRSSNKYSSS

CYSLT1 = biological target: T27, CYSLT1 (Homo sapiens, UniProt Q9Y271); experiment: FLIPR functional screen; type: cell-based; conditions: antagonist mode
T27 construct: Millipore
T27 sequence (Q9Y271 whole entry, species assumed): as the sequence (Q9Y271 whole entry) above

ADRA1A = biological target: T28, ADRA1A (Homo sapiens, UniProt P35348); experiment: FLIPR functional screen; type: cell-based; conditions: antagonist mode
T28 construct: purchased Millipore (outsourced screen)

CXCR4 = biological target: T29, CXCR4 (Homo sapiens, UniProt P61073); experiment: FLIPR functional screen; type: cell-based; conditions: antagonist mode
T29 construct: Millipore
T29 sequence (P61073 whole entry, species assumed): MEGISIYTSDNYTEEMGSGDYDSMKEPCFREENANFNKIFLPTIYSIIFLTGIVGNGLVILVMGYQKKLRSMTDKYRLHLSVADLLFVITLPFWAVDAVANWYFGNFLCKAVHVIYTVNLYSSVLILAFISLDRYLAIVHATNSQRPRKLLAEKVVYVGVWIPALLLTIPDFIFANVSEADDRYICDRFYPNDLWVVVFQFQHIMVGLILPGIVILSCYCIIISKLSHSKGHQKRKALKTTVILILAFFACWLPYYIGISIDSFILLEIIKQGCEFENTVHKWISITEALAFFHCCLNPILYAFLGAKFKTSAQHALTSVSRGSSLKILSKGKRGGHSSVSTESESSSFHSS

T2 sequence (P55085 26-397): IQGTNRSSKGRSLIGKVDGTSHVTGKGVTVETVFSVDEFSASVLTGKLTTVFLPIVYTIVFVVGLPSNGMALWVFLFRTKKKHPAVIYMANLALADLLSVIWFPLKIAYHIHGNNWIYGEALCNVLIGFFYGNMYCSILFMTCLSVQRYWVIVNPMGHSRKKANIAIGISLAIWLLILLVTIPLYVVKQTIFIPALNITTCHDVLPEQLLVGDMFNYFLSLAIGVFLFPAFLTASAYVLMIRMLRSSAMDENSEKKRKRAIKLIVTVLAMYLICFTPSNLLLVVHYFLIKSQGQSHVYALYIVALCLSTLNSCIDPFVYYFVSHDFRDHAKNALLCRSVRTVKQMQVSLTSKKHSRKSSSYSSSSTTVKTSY
T1 sequence (Q8TCW9 whole entry): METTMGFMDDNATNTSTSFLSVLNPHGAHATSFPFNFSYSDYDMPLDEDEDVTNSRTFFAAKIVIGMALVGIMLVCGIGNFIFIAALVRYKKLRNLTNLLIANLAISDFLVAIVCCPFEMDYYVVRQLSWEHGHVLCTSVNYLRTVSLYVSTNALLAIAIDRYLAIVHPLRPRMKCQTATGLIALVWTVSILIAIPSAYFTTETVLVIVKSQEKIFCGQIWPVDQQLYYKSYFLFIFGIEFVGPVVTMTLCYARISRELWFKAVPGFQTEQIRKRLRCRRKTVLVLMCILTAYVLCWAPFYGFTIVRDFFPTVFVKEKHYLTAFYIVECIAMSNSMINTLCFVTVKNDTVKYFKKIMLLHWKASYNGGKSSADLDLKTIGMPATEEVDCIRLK

**Q.** Which results are given for `CCN1C(=O)N2Cc3cc(OC)cc(OC)c3[C@@H](C)C=C2C12CCN(Cc1cccn1C)CC2` [ER-819924-01]?
**A.** inhibition at 1 µM (PK1): -4.3%; inhibition at 1 µM (PAR2): -0.8%; inhibition at 1 µM (S1P5): -7.4%; inhibition at 1 µM (GAL2): 8.1%; inhibition at 1 µM (BB1): 7.1%; inhibition at 1 µM (M5): 10.1%; inhibition at 1 µM (PAC1): 4.1%; inhibition at 1 µM (C5AR): 6.2%; inhibition at 1 µM (S1P4): -6.6%; inhibition at 1 µM (FPR1): 8%; inhibition at 1 µM (GNRHR): 35.8%; inhibition at 1 µM (D5): 34.7%; inhibition at 1 µM (5-HT1A): -1.6%; % INHIBITION ([1]; CONC. 0.1 μm): −1%; % INHIBITION ([1]; CONC. 1 μm): −5%; inhibition at 1 µM (PTH1): 3.9%; inhibition at 1 µM (M4): 10.5%; inhibition at 1 µM (A1): 2.2%; inhibition at 1 µM (PK2): -3.8%; X-ray score (CIA mouse; 30 mg/kg, separate study): significantly improved X-ray score; ED50 (CIA mouse; Mus musculus, 480 h, partial therapeutic dosing, oral daily from day 20): ~10 mg/kg; arthritis development under full therapeutic dosing (CIA mouse; dosed after induction of disease, 10 mg/kg): effectively prevented further arthritis development; inhibition at 1 µM (CCR8): 2.9%; inhibition at 1 µM (C3AR): -8.2%; inhibition at 1 µM (NK1): 2.9%; inhibition at 1 µM (OPRK1): 6.2%; inhibition at 1 µM (VPAC1): 4.6%; inhibition at 1 µM (MOTILIN): -0.9%; inhibition at 1 µM (PTH2): -6.2%; inhibition at 1 µM (ETB): 6.2%; inhibition at 1 µM (CYSLT1): -1.6%; inhibition at 1 µM (ADRA1A): 17.6%; inhibition at 1 µM (CXCR4): -11.8%
